Our source for the EC50 values is US8765730B2 (Hoffmann-La Roche Inc, priority 2010, dated 2014).

The experiment addresses T1, human GPBAR1 receptor (Homo sapiens, UniProt Q8TDU6).
T1 construct: expressed in transfected cells
T1 sequence (Q8TDU6 1-330): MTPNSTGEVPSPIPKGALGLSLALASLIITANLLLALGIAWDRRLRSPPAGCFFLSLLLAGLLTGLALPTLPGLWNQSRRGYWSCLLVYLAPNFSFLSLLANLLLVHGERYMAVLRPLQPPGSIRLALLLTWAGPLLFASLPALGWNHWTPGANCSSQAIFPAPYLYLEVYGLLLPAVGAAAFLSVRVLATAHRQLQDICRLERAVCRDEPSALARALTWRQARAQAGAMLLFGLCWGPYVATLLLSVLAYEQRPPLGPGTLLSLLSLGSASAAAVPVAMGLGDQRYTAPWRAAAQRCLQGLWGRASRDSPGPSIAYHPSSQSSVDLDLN
Nature of the experiment: functional cAMP assay in CHO-dhfr(minus) cells expressing human GPBAR1 receptors. It is filed as cell-based. Particulars: 30 min at 30° C. An outline of the steps:
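Agonist cAMP read-out: stable GPBAR1 CHO-dhfr− clone, 30 min compound exposure at 30° C following 30 min IBMX (1 mM) preincubation in Krebs Ringer bicarbonate. Time-resolved energy-transfer detection gives EC50; parental CHO cells serve as counter-screen.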
On the technique in general: cAMP levels reflect the balance of adenylyl cyclase and phosphodiesterase activity.

The mark [1] stands for this setting: human EC50, functional cAMP assay.
Setting [2] is: functional cAMP assay, read-out: human EC50.

Where two headings read alike, the source gives them in different places.

By EC50 is commonly meant the concentration needed to bring the measured effect to its halfway point. `Cc1cc(Cl)ccc1C(C/C(=N\O)c1ccc(=O)n(C)c1)c1ccc(OCCCC(=O)O)cc1` (stereo not drawn) [Example 349, 4-{4-[1-(4-Chloro-2-methyl-phenyl)-3-[(E)-hydroxyimino]-3-(1-methyl-6-oxo-1,6-dihydro-pyridin-3-yl)-propyl]-phenoxy}-butyric acid] registered an EC50 under setting [1] of 267 nM.

In turn, `Cn1cc(/C(CC(c2ccc(S(C)(=O)=O)cc2)c2cc(Cl)ccc2Cl)=N/O)ccc1=O` (stereo not drawn) [Example 350, (E)-5-(3-(2,5-Dichlorophenyl)-1-(hydroxyimino)-3-(4-(methylsulfonyl)phenyl)propyl)-1-methylpyridin-2(1H)-one] returned an EC50 under setting [1] of 129 nM. `Cn1cc(/C(CC(c2ccc(S(C)(=O)=O)cc2)c2cc(F)cc(F)c2)=N/O)ccc1=O` (stereo not drawn) [Example 351, (E)-5-(3-(3,5-Difluorophenyl)-1-(hydroxyimino)-3-(4-(methylsulfonyl)phenyl)propyl)-1-methylpyridin-2(1H)-one] had a 50% effective concentration (EC50) under setting [1] of 452 nM.

With `Cn1cc(/C(CC(c2ccc(S(C)(=O)=O)cc2)c2cc(Cl)cc(Cl)c2)=N/O)ccc1=O` (stereo not drawn) [Example 352, (E)-5-(3-(3,5-Dichlorophenyl)-1-(hydroxyimino)-3-(4-(methylsulfonyl)phenyl)propyl)-1-methylpyridin-2(1H)-one], the EC50 under setting [1] was 81 nM.

Compound `Cc1cc(Cl)ccc1C(C/C(=N\O)c1ccc(=O)n(C)c1)c1ccc(NS(C)(=O)=O)cc1` (stereo not drawn) [Example 353, N-{4-[1-(4-Chloro-2-methyl-phenyl)-3-[(E)-hydroxyimino]-3-(1-methyl-6-oxo-1,6-dihydro-pyridin-3-yl)-propyl]phenyl}-methanesulfonamide] gave an EC50 under setting [1] of 274 nM. Still for that read-out and setting: in the case of `Cc1cc(Cl)ccc1C(C/C(=N\O)c1ccc(=O)n(C)c1)c1ccc(NS(=O)(=O)C2CC2)cc1` (stereo not drawn) [Example 354, Cyclopropanesulfonic acid {4-[1-(4-chloro-2-methyl-phenyl)-3-[(E)-hydroxyimino]-3-(1-methyl-6-oxo-1,6-dihydro-pyridin-3-yl)-propyl]-phenyl}-amide] it was 489 nM; in that of `Cc1cc(Cl)ccc1C(C/C(=N\O)c1ccc(=O)n(C)c1)c1ccc(N2CCCC2=O)cc1` (stereo not drawn) [Example 355, 5-{3-(4-Chloro-2-methyl-phenyl)-1-[(E)-hydroxyimino]-3-[4-(2-oxo-pyrrolidin-1-yl)-phenyl]-propyl}-1-methyl-1H-pyridin-2-one], 110 nM. On the same count and under the same terms, in the case of `Cc1cc(/C(C[C@H](c2ccc(N[C@H]3C[C@H](C(=O)O)C3)cc2)c2ccccc2C)=N/O)ccn1` [Example 356, 3-{4-[(R)-3-[(E)-Hydroxyimino]-3-(2-methyl-pyridin-4-yl)-1-o-tolyl-propyl]-phenylamino}-cyclobutanecarboxylic acid] it was 90 nM.

For `COC(CCl)CNc1ccc([C@@H](C/C(=N\O)c2ccnc(C)c2)c2ccccc2C)cc1` (stereo partly drawn) [Example 357, (R)-3-[4-(3-Chloro-2-methoxy-propylamino)-phenyl]-1-(2-methyl-pyridin-4-yl)-3-o-tolyl-propan-1-one oxime], under setting [2], the EC50 came out at 91 nM. Take `Cc1cc(/C(C[C@H](c2ccc(S(C)(=O)=O)cc2)c2ccccc2C)=N/O)ccn1` [Example 358, (R)-3-(4-Methanesulfonyl-phenyl)-1-(2-methyl-pyridin-4-yl)-3-o-tolyl-propan-1-one oxime]: the EC50 under setting [1] stood at 14 nM. Consider `Cc1cc(/C(C[C@H](c2ccc(S(C)(=O)=O)cc2)c2ccc(Cl)cc2C)=N/O)ccn1` [Example 359, (R)-3-(4-Chloro-2-methyl-phenyl)-3-(4-methanesulfonyl-phenyl)-1-(2-methyl-pyridin-4-yl)-propan-1-one oxime], for which the concentration giving a half-maximal response (EC50) under setting [1] was 26 nM. Turning to `Cc1ccccc1C(C/C(=N\O)c1ccc(=O)n(C)c1)c1ccc(C(=O)O)cc1` (stereo not drawn) [Example 360, 4-[3-[(E)-Hydroxyimino]-3-(1-methyl-6-oxo-1,6-dihydro-pyridin-3-yl)-1-o-tolyl-propyl]-benzoic acid], the EC50 under setting [1] was 4760 nM. Turning to `Cc1cc(Cl)ccc1C(C/C(=N\O)c1ccc(=O)n(C)c1)c1ccc(C(=O)O)cc1` (stereo not drawn) [Example 361, 4-[1-(4-Chloro-2-methyl-phenyl)-3-[(E)-hydroxyimino]-3-(1-methyl-6-oxo-1,6-dihydro-pyridin-3-yl)-propyl]-benzoic acid], under setting [1], the midpoint of the response, the EC50, lay at 2300 nM. Still for that read-out and setting: in the case of `Cc1cc(Cl)ccc1[C@H](C/C(Cc1ccccn1)=N\O)c1ccc(Br)cc1` [Example 362, (E,R)-4-(4-bromo-phenyl)-4-(4-chloro-2-methyl-phenyl)-1-pyridin-2-yl-butan-2-one oxime] it was 2000 nM.

`Cc1cc(/C(C[C@H](c2ccc(O)cc2)c2ccccc2C)=N/O)ccn1` [Example 363, (R)-3-(4-Hydroxy-phenyl)-1-(2-methyl-pyridin-4-yl)-3-o-tolyl-propan-1-one oxime]: under setting [1], the response was half-maximal at 28 nM (EC50).

`CCOc1ccc([C@@H](C/C(=N\O)c2ccnc(C)c2)c2ccccc2C)cc1` [Example 364, (R)-3-(4-Ethoxy-phenyl)-1-(2-methyl-pyridin-4-yl)-3-o-tolyl-propan-1-one oxime]: the EC50 under setting [1] worked out at 4 nM. The same measure, in the same setting: in the case of `Cc1cc(/C(C[C@@H](c2ccc(O)cc2)c2ccc(Cl)cc2C)=N/O)ccn1` [Example 365, (S)-3-(4-Chloro-2-methyl-phenyl)-3-(4-hydroxy-phenyl)-1-(2-methyl-pyridin-4-yl)-propan-1-one oxime] it was 233 nM; in that of `CCOc1ccc([C@H](C/C(=N\O)c2ccnc(C)c2)c2ccc(Cl)cc2C)cc1` [Example 366, (S)-3-(4-Chloro-2-methyl-phenyl)-3-(4-ethoxy-phenyl)-1-(2-methyl-pyridin-4-yl)-propan-1-one oxime], 171 nM. Still for that read-out and setting: in the case of `Cc1cc(/C(C[C@H](c2ccc(N3CCC(C(N)=O)CC3)cc2)c2ccccc2C)=N/O)ccn1` [Example 367, (R,E)-1-(4-(3-(Hydroxyimino)-3-(2-methylpyridin-4-yl)-1-o-tolylpropyl)phenyl)piperidine-4-carboxamide] it was 1 nM; in that of `Cc1cc(/C(C[C@H](c2ccccc2)c2ccccc2C)=N/O)ccn1` [Example 368, (R,E)-1-(2-Methylpyridin-4-yl)-3-phenyl-3-o-tolylpropan-1-one oxime], 18 nM. Under setting [1], `Cc1cc(/C(C[C@H](c2ccc(N3CCC(C(=O)NCC(=O)O)CC3)cc2)c2ccccc2C)=N/O)ccn1` [Example 369, (R,E)-2-(1-(4-(3-(Hydroxyimino)-3-(2-methylpyridin-4-yl)-1-o-tolylpropyl)phenyl)-piperidine-4-carboxamido)acetic acid] gave an EC50 of 2 nM.

Under setting [1], `Cc1cc(/C(C[C@H](c2ccc(N3CCC(C(=O)NCCS(=O)(=O)O)CC3)cc2)c2ccccc2C)=N/O)ccn1` [Example 370, (R,E)-2-(1-(4-(3-(hydroxyimino)-3-(2-methylpyridin-4-yl)-1-o-tolylpropyl)phenyl)-piperidine-4-carboxamido)ethanesulfonic acid] returned an EC50 of 1 nM. The same measure, in the same setting: in the case of `Cc1cc(/C(C[C@H](c2ccc(N3CC4(CSC4)C3)cc2)c2ccccc2C)=N/O)ccn1` [Example 371, (3R,E)-3-(4-(2-thia-6-azaspiro[3.3]heptan-6-yl)phenyl)-1-(2-methylpyridin-4-yl)-3-o-tolylpropan-1-one oxime] it was 24 nM; in that of `Cc1cc(/C(C[C@H](c2ccc(C3=CCN(C(=O)OC(C)(C)C)CC3)cc2)c2ccccc2C)=N/O)ccn1` [Example 372, (R)-tert-Butyl 4-(4-(3-(hydroxyimino)-3-(2-methylpyridin-4-yl)-1-o-tolylpropyl)phenyl)-5,6-dihydropyridine-1(2H)-carboxylate], 134 nM.

As to `Cc1ccccc1[C@H](C/C(=N\O)c1ccnc(CO)c1)c1ccc(N2CCC(C(=O)O)CC2)cc1` [Example 374, (R,E)-1-(4-(3-(Hydroxyimino)-3-(2-(hydroxymethyl)pyridin-4-yl)-1-o-tolylpropyl)phenyl)-piperidine-4-carboxylic acid], the concentration for a half-maximal effect (EC50) under setting [2] was determined as 31 nM.

Consider `Cc1cc(/C(C[C@H](c2ccc(C3=CCNCC3)cc2)c2ccccc2C)=N/O)ccn1` [Example 375, (R,E)-1-(2-Methylpyridin-4-yl)-3-(4-(1,2,3,6-tetrahydropyridin-4-yl)phenyl)-3-o-tolylpropan-1-one oxime], for which, under setting [1], the EC50 was 75 nM. Under setting [1], `Cc1cc(/C(C[C@H](c2ccc(C3=CCN(S(C)(=O)=O)CC3)cc2)c2ccccc2C)=N/O)ccn1` [Example 376, (R,E)-1-(2-Methylpyridin-4-yl)-3-(4-(1-(methylsulfonyl)-1,2,3,6-tetrahydropyridin-4-yl)phenyl)-3-o-tolylpropan-1-one oxime] came in with an EC50 of 14 nM. The same measure, in the same setting: to `Cc1cc(/C(C[C@H](c2ccc(C3=CC(=O)NCC3)cc2)c2ccccc2C)=N/O)ccn1` [Example 377, (R,E)-4-(4-(3-(Hydroxyimino)-3-(2-methylpyridin-4-yl)-1-o-tolylpropyl)phenyl)-5,6-dihydropyridin-2(1H)-one] belongs 12 nM; to `Cc1cc(/C(C[C@H](c2ccc(C3CCNCC3)cc2)c2ccccc2C)=N/O)ccn1` [Example 378, (R,E)-1-(2-Methylpyridin-4-yl)-3-(4-(piperidin-4-yl)phenyl)-3-o-tolylpropan-1-one oxime], 145 nM; to `Cc1cc(/C(C[C@H](c2ccc(C3CCN(S(C)(=O)=O)CC3)cc2)c2ccccc2C)=N/O)ccn1` [Example 379, (R,E)-1-(2-methylpyridin-4-yl)-3-(4-(1-(methylsulfonyl)piperidin-4-yl)phenyl)-3-o-tolylpropan-1-one oxime], 14 nM.
